The text below walks through data of a melting point compilation (Tetko et al.; mined from patent text by program, amines drawn as free bases though some values may be those of a salt).

Turning to `N#Cc1cnc2c(oc3ccccc32)c1Nc1ccc(Oc2ccccc2)cc1`, the melting point was 175 to 179 °C.

The compound `O=C1CC(C(F)(F)F)CC(=O)N1c1cc(O)c(Cl)cc1F` returned a melting point of 112 to 114 °C.

Take `COC(=O)c1cc(Cl)c(C)c(N)c1Cl`: the melting point fell in the range of 53 to 55 °C.

The compound `Nc1ncc2ncn([C@H]3C=C[C@@H](O)C3)c2n1` (racemic) came in with a melting point of 144 to 147 °C.

The compound `C[C@H]1C[C@@](O)(c2cnc(Sc3ccc4c(c3)CC(=O)N4C)s2)CCO1` showed a melting point of 140 °C.

In turn, `CCOP(=O)(Cc1ccc(C(N)=O)cc1)OCC` showed a melting point of 177 to 178 °C.

With `Cc1ccnc(C(=O)c2[nH]c3cc(Cl)c(Cl)cc3c2CC(=O)O)c1`, the melting point lay within 220 to 224 °C.

`O=C1C=C(C2CCCCNC2=O)CCC1` (stereo unspecified) yielded a melting point of 159 to 165 °C.

`CCC1(NC2=NS(=O)(=O)c3sc(Cl)cc3N2)CCC1` displayed a melting point of 244 to 246 °C.

As to `CCC(O)c1c(C)nc2ccccc2c1N` (stereo unspecified), the melting point was 220 to 230 °C.

As for `CCCc1c(Cl)sc2[nH]c(=O)c(=O)[nH]c12`, the melting point lay within 285 to 287 °C.

In turn, `CC(CCNc1cccc(-c2ccnc3c(C(=O)c4cccs4)cnn23)c1)CC(C)(C)C` (stereo unspecified) yielded a melting point of 81 to 85 °C.

In the case of `CN1C(=O)C(C(=O)Nc2ccc(Oc3nc4ccc(Cl)cc4s3)cc2)C(=O)N(C)C1=S`, the melting point lay within 213 to 215 °C.

`CCCCNC(=O)NS(=O)(=O)CCc1c(C)nn(C)c1-n1ccc2cc(C(F)(F)F)cnc21` showed a melting point of 163 to 164 °C.

`COc1cccc2ccc(C(F)(F)F)nc12` registered a melting point of 88 to 89 °C.

On to `CCOc1ccc(N(C)CCCN)cc1`, for which the melting point lay within 97 to 98 °C.

`O=C1CC2(CC=CC2)CC(=O)N1` returned a melting point of 150 to 153 °C.

In the case of `CC(=O)Nc1ncc(S(=O)(=O)NCC(O)(Cn2cncn2)c2ccc(Cl)cc2Cl)s1` (stereo unspecified), the melting point lay within 96 to 112 °C.

The compound `COc1ccc(C(=O)Nc2ccc(C(=O)NC(C)(C)C)cc2)cc1C12CC3CC(CC(C3)C1)C2` registered a melting point of 270 to 273 °C.

For `O=c1cccccc1S`, the melting point came to 55 °C.

Compound `COCC(C)N1Cc2c(NC(=O)c3ccc(F)c(C(F)(F)F)c3)cccc2C1=O` (stereo unspecified) displayed a melting point of 151 to 152 °C.

Compound `CCCCCCCCCCCCCCCCCCOC1=CC(OCCCOc2ccc(C(C)(C)C)cc2)(N(CC(=O)O)CC(=O)O)CC=C1` (stereo unspecified) yielded a melting point of 99 to 101 °C.

`O=C(O)CN(CC(=O)O)c1cccc(N(CC(=O)O)CC(=O)O)c1` yielded a melting point of 188 °C.

Regarding `CCCCCCCCN(C(=O)Nc1ccc(C(=O)O)cc1)c1ccc2c(c1)C(C)(C)CCC2(C)C`, the melting point is 166 to 167 °C.

In turn, `COc1ccc(OC2c3cc(C#N)ccc3OC(C)(C)C2O)nn1` (stereo unspecified) gave a melting point of 224 to 227 °C.

As to `COC(=O)CCC(C(=O)C=Cc1ccc(OC(C)=O)c(OC(F)(F)F)c1)C(=O)C=Cc1ccc(OC(C)=O)c(OC(F)(F)F)c1` (stereo unspecified), the melting point was in the range of 149 to 150 °C.

As to `Cc1cc(C(=O)N2Cc3ccc(C(=O)N(C)CC(O)CO)n3Cc3ccccc32)ccc1-c1ccccc1C(F)(F)F` (stereo unspecified), the melting point is 169 to 172 °C.

`Cc1cc(N2CCN(C(=O)N3CCN(S(=O)(=O)c4ccc(Br)cc4)CC3)CC2)ncn1` gave a melting point of 215 to 216 °C.

Consider `O=C(O)c1cccc(-c2ccc3c(c2)C(NCc2ccc(Cl)cc2Cl)CC3)c1` (stereo unspecified), for which the melting point lay in the range of 190 to 191 °C.

`CN(C)CCN(C)C(=O)Cn1nc(-c2ccccc2O)nc1-c1ccccc1O` returned a melting point of 172 to 174 °C.

The compound `C[C@@H](c1ccc(-c2ccc(C(=O)NC3CC3)cn2)cc1)N1CC[C@](CC(C)(C)O)(c2ccccc2)OC1=O` came in with a melting point of 191 to 194 °C.

On to `O=CN(O)C(CCO)CS(=O)(=O)c1ccc(-c2ccc(C(F)(F)F)cc2)cc1` (stereo unspecified), for which the melting point is 186 to 189 °C.

`CCCNc1nc(C#N)c(C#N)nc1-c1ccccc1` returned a melting point of 136 to 137 °C.

Compound `CN1CCN(c2ccc(Br)cc2)CC1` showed a melting point of 78 to 80 °C.

Take `CC(=O)Nc1ncc(Cc2ccc(Cl)cc2)c(N)n1`: the melting point is 215 °C.

As to `CN1CCN(c2nn(S(=O)(=O)c3ccccc3)c3ccc(Br)cc23)CC1`, the melting point was 135 to 137 °C.

In turn, `CS(=O)(=O)c1ncc2n1-c1ccc(Cl)cc1C(c1ccccc1F)=[N+]([O-])C2` showed a melting point of 219 to 220 °C.

As for `CCc1cc(Cl)c2c(=O)cc(C(=O)O)[nH]c2c1`, the melting point was 248 to 250 °C.

Compound `Cc1cc(C)n(-c2ccc(OC=C3C=CC=CC3n3nnn(C)c3=O)c(Cl)c2)n1` (stereo unspecified) returned a melting point of 122 to 124 °C.

Take `CN1C(=O)CN(NC(=O)CNC(=O)OCc2ccccc2)C(c2ccccc2)c2cc(Cl)ccc21` (stereo unspecified): the melting point fell in the range of 184 to 190 °C.

Consider `CCCCC(Oc1ccccc1)C(=O)OC1CC(O)C=C2C=CC(C)C(CCC3CC(O)CC(=O)O3)C21` (mixture of isomers), for which the melting point lay within 139 to 141 °C.

With `O=S1(=O)C(CN2CCCCC2)=Cc2ccc(Cl)cc21`, the melting point was in the range of 154 to 156 °C.

Compound `Cc1ccc(O)c2c1CCC1C2CCC2(C)C(O)CCC12` (stereo unspecified) returned a melting point of 226 to 229 °C.

`CCOC(=O)c1ccc2cc(-c3cccc4ccccc34)ccn2c1=O` came in with a melting point of 245 to 247 °C.

Turning to `COC(=O)c1ccc(OC(=O)c2ccccc2)cc1OC`, the melting point is 91 °C.

`c1cc(N2CCOCC2)ccn1` came in with a melting point of 93 to 95 °C.

`CC(=O)NS(=O)(=O)c1ccc(NC(=O)c2ccccc2SSc2ccccc2C(=O)Nc2ccc(S(=O)(=O)NC(C)=O)cc2)cc1` came in with a melting point of 180 to 182 °C.

As to `Cc1c2n(c3ccccc13)C(=O)C(CO)(Cc1ncn(C(c3ccccc3)(c3ccccc3)c3ccccc3)c1C)CC2` (stereo unspecified), the melting point was 85 to 88 °C.

In the case of `CC(C)(C)c1cc(CCc2ccccc2NC(=O)NC2CCC(O)CC2)cc(C(C)(C)C)c1O` (stereo unspecified), the melting point fell in the range of 202 to 203 °C.

For `CC(NC(=O)C(F)c1cc(F)cc(F)c1)C(=O)NC1N=C(c2ccccc2)c2ccccc2N(C)C1=O` (stereo unspecified), the melting point lay in the range of 119 to 120 °C.

For `Cc1cc(NC2=NCCN2C(=O)c2ccccc2)n(C)n1`, the melting point fell in the range of 147 to 149 °C.

`COc1cc(C=C2C(=O)NC(=O)N2C)cc(OC)c1O` came in with a melting point of 194 to 196 °C.

In the case of `Cc1nc(N2CCN(Cc3ccc(F)cc3)C2=O)sc1C(=O)NCc1cocn1`, the melting point lay within 188 to 191 °C.

Consider `Cc1ccc2nc(CCl)n3cnnc3c2c1`, for which the melting point turned out to be 175 °C.

For the compound `Cn1ccc2cc(N3Cc4ccc(OC(F)F)cc4C3=O)ccc21`, the melting point was in the range of 180 to 182 °C.

`O=S1(=O)CCC(=NO)C1=NO` came in with a melting point of 181 °C.

Consider `CCCCC1(O)CCC2C3CCC4=CC(=O)CC(C)C4(C)C3CCC21C` (stereo unspecified), for which the melting point came out at 85 °C.

For the compound `CCCCCCNC(=O)CSc1nc(Cl)cc(Nc2cccc(C)c2C)n1`, the melting point lay within 116 to 118 °C.

On to `C#Cc1cc(Nc2ncnc3cnc(NC(=O)/C=C/CN(C)C)cc23)ccc1F`, for which the melting point fell in the range of 152 to 155 °C.

The compound `O=C(NC1CCN(CCc2ccccc2)CC1)c1ccccc1` showed a melting point of 164 to 167 °C.

For the compound `COc1ccc(C=C=C(C)C(=O)O)cc1`, the melting point fell in the range of 105 to 108 °C.

In turn, `CCOC(=O)CCCc1sc(N)nc1-c1ccc(Cl)cc1` came in with a melting point of 114 to 115 °C.

`CC(C)c1cc(/C=C/C(=O)O)n(Cc2ccc(Cl)cc2Cl)n1` showed a melting point of 174 to 175 °C.

`CCOC(=O)N(c1ccccc1[N+](=O)[O-])c1cccc(C)c1C`: the melting point fell in the range of 71 to 73 °C.

As to `CC1(C)Oc2ccc(C#N)cc2[C@@H](N2CCCC2=O)[C@@H]1O` (relative stereo), the melting point turned out to be 226 °C.

Compound `Cc1ccc(S(=O)(=O)NC(=O)CC2(c3ccc(OCc4ccc5ccccc5n4)cc3)CCCC2)cc1` yielded a melting point of 80 °C.

Turning to `CCOC(=O)c1ccc(Cc2nc3n(-c4c(Cl)cc(Cl)cc4Cl)[nH]c(C(C)C)c-3c(=O)n2)cc1`, the melting point lay in the range of 233 to 235 °C.

Consider `CN(C(=O)CCSC(c1ccccc1)(c1ccccc1)c1ccccc1)c1cn(-c2cccnc2)nc1Cl`, for which the melting point lay in the range of 62 to 64 °C.

The compound `CCON=C(CC)C1=C(O)CC(c2ccc(NC(=O)c3ccccc3C)cc2)CC1=O` (stereo unspecified) displayed a melting point of 139 to 140 °C.

With `CCOC(=O)c1cc2c(=O)n(CC)c3ccc(Cl)cc3n2c1`, the melting point lay in the range of 230 to 232 °C.

For the compound `Cc1cccc2c1C(=O)N(C1(C(=O)Nc3ccc(Cl)cc3)CCCCC1)C2=O`, the melting point is 208 to 209 °C.

Take `OCCCc1cc2c(cc1O)CCO2`: the melting point lay in the range of 103 to 104 °C.

In turn, `CCCC1=C(C(=O)OCC)C(C(C)C)n2ncc(C(=O)OCC)c2N1Cc1ccc(-c2ccccc2-c2nnn[nH]2)cc1` (stereo unspecified) showed a melting point of 183 to 184 °C.

For the compound `O=C(O)c1cccc(NC(=O)C(CS)Cc2ccccc2)c1` (stereo unspecified), the melting point was 178 to 180 °C.

Consider `O=c1[nH]c(N2CCN(CCCCN3CCCCC3)CC2)cc2c(Br)cccc12`, for which the melting point lay in the range of 165 to 166 °C.

`N=C(N)NC(=O)Cn1c(C(=O)c2ccccc2)ccc1-c1ccccc1` gave a melting point of 201 to 203 °C.

Regarding `CCCCc1nc(C(F)(F)CCC)nn1Cc1ccc(-c2ccccc2-c2nnn[nH]2)cc1`, the melting point lay in the range of 165 to 168 °C.

Compound `COc1cc(-n2cccn2)ccc1-n1cc(OC)c(=O)c(C(C)=O)n1` registered a melting point of 193 to 196 °C.

For `CCOC(=O)CC(O)c1ccc(-c2ccc([N+](=O)[O-])cc2)o1` (stereo unspecified), the melting point is 79 to 81 °C.

For the compound `CCOC(=O)C1=CC(C(=O)c2cc(C)ccc2O)=CN2CCc3c([nH]c4ccc(OC)cc34)C12C(=O)OCC` (stereo unspecified), the melting point is 228 °C.

In turn, `CC(=O)Oc1ccc2c(ccc3ccccc32)c1` had a melting point of 141 to 142 °C.

On to `CCN(C)c1cc(F)cc(C(=O)Nc2ccc(OCCN3CCOCC3)c3ccccc23)c1`, for which the melting point is 126 to 128 °C.

`CCS(=O)(=O)N(CCCCC(N)=O)C1CC(C)(C)Oc2ccc(C)cc21` (stereo unspecified) gave a melting point of 127 to 129 °C.

The compound `CCOC(=O)C(C)c1ccc(N[C@@H](CCC(N)=O)C(=O)O)cc1` (stereo partly specified) displayed a melting point of 157 to 158 °C.

Compound `Cc1cccc(Nc2ccccc2-c2n[nH]c(=O)o2)c1C` yielded a melting point of 239 to 241 °C.

For the compound `Cn1ncc(N2CCNCC2)c(Cl)c1=O`, the melting point is 83 to 87 °C.

The melting point is the temperature of the solid-liquid transition.
